The values that follow come from ChEMBL document CHEMBL1201862, “PubChem BioAssay data set” (2004).

Holding throughout (assay): DTP human tumour cell line panel, 48 h
Assay [1] concerns NCI/ADR-RES.
Assay [2] has as its system OVCAR-8.
In assay [3] the test system is A498.
The test system of assay [4] is PC-3.
The subject of assay [5] is KM12.
Assay [6] deals with RXF 393.
The subject of assay [7] is HCT-15.
For assay [8], the system named is TK-10.
In assay [9] the test system is SNB-19.
The subject of assay [10] is A549.
In assay [11] the test system is SK-MEL-28.
The test system of assay [12] is 786-0.
Assay [13] has as its system U-251.
Assay [14] deals with MDA-MB-435.
In assay [15] the test system is UO-31.
The test system of assay [16] is MDA-MB-231.
Assay [17] has as its system SK-OV-3.
The test system of assay [18] is SNB-75.
Assay [19] has as its system NCI-H522.
The test system of assay [20] is EKVX.

The structures appear in SMILES notation.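 Assay format: 96-well plates, 48-hour exposure. At the GI50, growth is halved.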 Activity calls are given as the source filed them. No stated cut-off is given here; in the data, active = GI50 up to about 1.1 µM and inactive = higher.

Take `COc1ccccc1Cn1c2c(c3cc(O)ccc31)C(=O)c1ccccc1C2=O`: the GI50 in assay [1] is 11.3 µM (inactive); in [2], 11.7 µM (inactive); in assay [3], 93.8 µM (inactive); in [4], 8.49 µM (inactive); in [5], 70.6 µM (inactive); in assay [6], 2.6 µM (inactive). Besides, the GI50 in [7] is 90.2 µM; in assay [8], 72.8 µM (inactive); in [9] it was 27.1 µM (inactive); in assay [10], 19.5 µM (inactive); in assay [11], 76.4 µM (inactive); in [12] it was 13.3 µM (inactive). Further, the GI50 in assay [13] was 16 µM (inactive); in assay [14], 84.3 µM (inactive); in [15], 48 µM (inactive); in assay [16], 12.4 µM (inactive); in assay [17] it was 2.42 µM (inactive); in assay [18], 19.2 µM (inactive).

Consider `COc1ccc(-c2nc(-c3cc4ccccc4oc3=O)cs2)cc1`, for which the GI50 was 47.9 µM (inactive) in assay [1]; 23.2 µM (inactive) in [2]; > 100 µM (inactive) in assay [4]; > 100 µM (inactive) in assay [5]; 85.3 µM (inactive) in assay [6]; greater than 100 µM in [7]. Also, the GI50 is 70.6 µM (inactive) in [8]; 30.1 µM (inactive) in assay [9]; 85.7 µM (inactive) in assay [10]; > 100 µM (inactive) in assay [19]; > 100 µM (inactive) in assay [20]; > 100 µM (inactive) in assay [11]. In addition, the GI50 is 31.3 µM (inactive) in [12]; 21.9 µM (inactive) in [13]; > 100 µM (inactive) in assay [14]; 35.7 µM (inactive) in [15]; 20.9 µM (inactive) in assay [16]; 29.6 µM (inactive) in [17]. For the same molecule, the GI50 in assay [18] was 52.2 µM (inactive).

In the case of `CC(=O)c1sc2n(C)c(=O)c3ccccc3[n+]2c1C`, the GI50 was > 100 µM (inactive) in [1]; > 100 µM (inactive) in [2]; > 100 µM (inactive) in assay [4]; > 100 µM (inactive) in assay [5]; > 100 µM (inactive) in assay [6]; greater than 100 µM in assay [7]. For the same molecule, the GI50 in assay [8], in [9], in assay [10], in assay [19], in [20] and in assay [11] was > 100 µM (inactive) in each case. The GI50 in [12], in assay [13], in assay [14], in [15], in assay [16] and in [17] was > 100 µM (inactive) throughout.

On to `O=[N+]([O-])c1cccc2nccc(NCCCO)c12`, for which the GI50 was 14.5 µM (inactive) in assay [2]; 10.4 µM (inactive) in assay [3]; 20.7 µM (inactive) in assay [4]; 10.8 µM (inactive) in [5]; 6.17 µM (inactive) in [6]; 8.11 µM in [7]. Moreover, the GI50 in assay [8] was 8.79 µM (inactive); in assay [9] it was 25.1 µM (inactive); in assay [10] it was 16.5 µM (inactive); in assay [19] it was 6 µM (inactive); in assay [20], 6.79 µM (inactive); in assay [11], 12.4 µM (inactive). Besides, the GI50 in assay [12] was 17.7 µM (inactive); in assay [13] it was 14.1 µM (inactive); in [14] it was 11.7 µM (inactive); in [15] it was 16 µM (inactive); in assay [16] it was 23 µM (inactive); in [17] it was 23.3 µM (inactive). Besides, in [18], the GI50 is 24.3 µM (inactive).

As to `Oc1ccc(O)c(CNc2ccccc2)c1`, the GI50 in [1] is 7.01 µM (inactive); in assay [2] it was 8.02 µM (inactive); in assay [4] it was 10.1 µM (inactive); in [5] it was 5.13 µM (inactive); in assay [6], 5.64 µM (inactive); in assay [7], 10.3 µM. Further, the GI50 in assay [8] was 22.7 µM (inactive); in assay [9] it was 19.5 µM (inactive); in assay [10], 26.4 µM (inactive); in [19] it was 1.94 µM (inactive); in assay [20] it was 18.7 µM (inactive); in [11], 33 µM (inactive). Moreover, the GI50 was 10.3 µM (inactive) in assay [12]; 17.1 µM (inactive) in [13]; 8.81 µM (inactive) in [14]; 10.7 µM (inactive) in [15]; 17.7 µM (inactive) in [16]; 19.2 µM (inactive) in assay [17]. For the same molecule, the GI50 in [18] is 33.5 µM (inactive).

For the molecule `COc1ccc(-c2nc3ccccc3c(=S)n2OC(C)=O)cc1`, the GI50 in assay [1] is 2.54 µM (inactive); in assay [2], 3.1 µM (inactive); in assay [3], 23.9 µM (inactive); in [4] it was 1.29 µM (inactive); in assay [5], 1.64 µM (inactive); in assay [6], 8.75 µM (inactive). The 50% growth inhibitory concentration (GI50) is 0.755 µM in assay [7]; > 25 µM (inactive) in [8]; 21.1 µM (inactive) in [9]; 2.5 µM (inactive) in assay [10]; 6.46 µM (inactive) in assay [20]; 6.5 µM (inactive) in assay [11]. Besides, the GI50 in assay [12] is 3.09 µM (inactive); in [13], 2.56 µM (inactive); in assay [14], 7.1 µM (inactive); in assay [15], 1.91 µM (inactive); in assay [16] it was > 25 µM (inactive); in [17], 5.71 µM (inactive). In addition, the GI50 in assay [18] was 6.84 µM (inactive).

On to `CC(=O)OCC1OC(N2C(=S)N[C@H]([C@@H](O)[C@H](O)[C@H](O)CO)[C@H]2O)C(OC(C)=O)C(OC(C)=O)C1OC(C)=O` (stereo not given in full), for which the GI50 in assay [1] is > 100 µM (inactive); in [2], > 100 µM (inactive); in assay [4], > 100 µM (inactive); in assay [5], > 100 µM (inactive); in assay [6] it was > 100 µM (inactive); in assay [7] it was greater than 100 µM. The GI50 in assay [9], in assay [10], in assay [19], in assay [20], in [11] and in [12] was > 100 µM (inactive) each time. The GI50 in [13], in [14], in [15], in assay [16] and in assay [17] was > 100 µM (inactive) throughout.

Consider `N#Cc1c2c(c(N)oc1=O)C(c1ccccc1)CC(=O)N2` (stereo not given), for which the GI50 in assay [1] was > 100 µM (inactive); in [2], > 100 µM (inactive); in assay [4], > 100 µM (inactive); in [5], > 100 µM (inactive); in assay [6] it was > 100 µM (inactive); in assay [7] it was greater than 100 µM. For the same molecule, the GI50 in assay [8], in assay [9], in assay [10], in assay [19], in [20] and in assay [11] was > 100 µM (inactive) each time. The GI50 in assay [12], in assay [13], in [14], in [15], in assay [16] and in assay [17] was > 100 µM (inactive) throughout. The GI50 in assay [18] was > 100 µM (inactive).

As to `CSCCCCCCCCCCOc1ccc(C=C2C(=C(C#N)C#N)c3ccccc3C2=C(C#N)C#N)cc1`, the GI50 in [1] was 29 µM (inactive); in assay [2], 17.5 µM (inactive); in assay [3] it was 17 µM (inactive); in [4], 17.6 µM (inactive); in assay [5], 19 µM (inactive); in assay [6], 17.3 µM (inactive). Besides, the GI50 in assay [7] was 23.1 µM; in [8] it was 19.4 µM (inactive); in assay [19], 19.5 µM (inactive); in [20] it was 18.1 µM (inactive); in [11], 16.1 µM (inactive); in assay [12] it was 17.5 µM (inactive). Moreover, the GI50 in assay [13] was 17.5 µM (inactive); in [14], 16.7 µM (inactive); in assay [15] it was 16.3 µM (inactive); in assay [16], 19.4 µM (inactive); in assay [17] it was 17.6 µM (inactive).

Take `COc1ccc2cc(C(C)C(=O)N3C(=O)OCC3(C)C)ccc2c1` (stereo not given): the GI50 in assay [1] was > 100 µM (inactive); in assay [2], > 100 µM (inactive); in assay [3], > 100 µM (inactive); in assay [4], > 100 µM (inactive); in [7], greater than 100 µM; in [8], > 100 µM (inactive). The GI50 in [9], in [10], in assay [20], in assay [11], in [12] and in assay [13] was > 100 µM (inactive) throughout. In addition, the GI50 in assay [14] is > 100 µM (inactive); in assay [15], > 100 µM (inactive); in assay [16], > 100 µM (inactive); in assay [17], > 100 µM (inactive); in assay [18] it was 46.6 µM (inactive).

With `COc1ccc2nc(-c3ccc(O)cc3)sc2c1`, the GI50 in [1] is 29.8 µM (inactive); in [2] it was 20.7 µM (inactive); in [3], 30.3 µM (inactive); in [4], 18.5 µM (inactive); in assay [5], 26.5 µM (inactive); in assay [6], 20.1 µM (inactive). The GI50 is 17.9 µM in [7]; 34.7 µM (inactive) in assay [8]; 34.7 µM (inactive) in assay [9]; 36.6 µM (inactive) in assay [10]; 16.8 µM (inactive) in assay [19]; 18.1 µM (inactive) in [20]. Moreover, the GI50 in [12] is 15.6 µM (inactive); in [13] it was 19.6 µM (inactive); in [14], 25.2 µM (inactive); in [15], 16.1 µM (inactive); in assay [16] it was 23 µM (inactive); in [17], 32.5 µM (inactive).
